Test results published in ChEMBL document CHEMBL3822390, “Synthesis, characterization and anti-cancer activity of a peptide nucleolipid bioconjugate” (2016).

What was measured:
Type in all cases: functional
[1] = Cytotoxicity against human OVCAR8 cells assessed as cell growth at 10 uM after 48 hrs by SRB assay; conditions: OVCAR-8, 48 h, read-out: Activity
SK-MEL-28 = assay: Cytotoxicity against human SK-MEL-28 cells assessed as cell growth at 10 uM after 48 hrs by SRB assay; conditions: SK-MEL-28, 48 h, read-out: Activity
[2] = Cytotoxicity against human HCT15 cells assessed as cell growth at 10 uM after 48 hrs by SRB assay; conditions: HCT-15, 48 h, read-out: Activity
[3] = Cytotoxicity against human HCC2998 cells assessed as cell growth at 10 uM after 48 hrs by SRB assay; conditions: HCC 2998, 48 h, read-out: Activity
[4] = Cytotoxicity against human NCI-ADR-RES cells assessed as cell growth at 10 uM after 48 hrs by SRB assay; conditions: read-out: Activity
[5] = Cytotoxicity against human MOLT4 cells assessed as cell growth at 10 uM after 48 hrs by SRB assay; conditions: MOLT-4, 48 h, read-out: Activity
786-0 [6] = assay: Cytotoxicity against human 786-0 cells assessed as cell growth at 10 uM after 48 hrs by SRB assay; conditions: 786-0, 48 h, read-out: Activity
M14 = assay: Cytotoxicity against human M14 cells assessed as cell growth at 10 uM after 48 hrs by SRB assay; conditions: M14, 48 h, read-out: Activity
[7] = Cytotoxicity against human SF295 cells assessed as cell growth at 7.25 uM after 48 hrs by SRB assay; conditions: SF-295, 48 h, read-out: Activity
NCI-H226 [8] = assay: Cytotoxicity against human NCI-H226 cells assessed as cell mortality at 7.25 uM after 48 hrs by SRB assay; conditions: NCI-H226, 48 h
NCI-H322M = assay: Cytotoxicity against human NCI-H322M cells assessed as cell growth at 7.25 uM after 48 hrs by SRB assay; conditions: read-out: Activity
[9] = Cytotoxicity against human OVCAR3 cells assessed as cell growth at 7.25 uM after 48 hrs by SRB assay; conditions: OVCAR-3, 48 h, read-out: Activity
[10] = Cytotoxicity against human TK10 cells assessed as cell growth at 7.25 uM after 48 hrs by SRB assay; conditions: TK-10, 48 h, read-out: Activity
[11] = Cytotoxicity against human SNB75 cells assessed as cell growth at 7.25 uM after 48 hrs by SRB assay; conditions: SNB-75, 48 h, read-out: Activity
[12] = Cytotoxicity against human LOXIMVI cells assessed as cell growth at 7.25 uM after 48 hrs by SRB assay; conditions: LOX IMVI, read-out: Activity
NCI-H226 [13] = assay: Cytotoxicity against human NCI-H226 cells assessed as cell growth at 7.25 uM after 48 hrs by SRB assay; conditions: NCI-H226, 48 h, read-out: Activity
NCI-H522 = assay: Cytotoxicity against human NCI-H522 cells assessed as cell mortality at 7.25 uM after 48 hrs by SRB assay; conditions: NCI-H522, 48 h
SK-MEL-2 = assay: Cytotoxicity against human SK-MEL-2 cells assessed as cell growth at 7.25 uM after 48 hrs by SRB assay; conditions: SK-MEL-2, 48 h, read-out: Activity
786-0 [14] = assay: Cytotoxicity against human 786-0 cells assessed as cell growth at 7.25 uM after 48 hrs by SRB assay; conditions: 786-0, 48 h, read-out: Activity
[15] = Cytotoxicity against human SF539 cells assessed as cell growth at 7.25 uM after 48 hrs by SRB assay; conditions: SF-539, 48 h, read-out: Activity
[16] = Cytotoxicity against human Caki1 cells assessed as cell growth at 7.25 uM after 48 hrs by SRB assay; conditions: CAKI-1, 48 h, read-out: Activity
[17] = Cytotoxicity against human OVCAR5 cells assessed as cell growth at 7.25 uM after 48 hrs by SRB assay; conditions: OVCAR-5, 48 h, read-out: Activity
KM12 [18] = assay: Cytotoxicity against human KM12 cells assessed as cell growth at 7.25 uM after 48 hrs by SRB assay; conditions: KM12, 48 h, read-out: Activity
[19] = Cytotoxicity against human UACC62 cells assessed as cell growth at 7.25 uM after 48 hrs by SRB assay; conditions: UACC-62, 48 h, read-out: Activity
[20] = Cytotoxicity against human SF268 cells assessed as cell growth at 2.13 uM after 48 hrs by SRB assay; conditions: SF-268, 48 h, read-out: Activity
[21] = Cytotoxicity against human OVCAR8 cells assessed as cell growth at 2.13 uM after 48 hrs by SRB assay; conditions: OVCAR-8, 48 h, read-out: Activity
U-251 = assay: Cytotoxicity against human U251 cells assessed as cell growth at 2.13 uM after 48 hrs by SRB assay; conditions: U-251, 48 h, read-out: Activity
CCRF-CEM = assay: Cytotoxicity against human CCRF-CEM cells assessed as cell growth at 2.13 uM after 48 hrs by SRB assay; conditions: read-out: Activity
MDA-MB-231 = assay: Cytotoxicity against human MDA-MB-231 cells assessed as cell growth at 2.13 uM after 48 hrs by SRB assay; conditions: MDA-MB-231, 48 h, read-out: Activity
[22] = Cytotoxicity against human DU145 cells assessed as cell growth at 2.13 uM after 48 hrs by SRB assay; conditions: DU-145, 48 h, read-out: Activity
NCI-H23 = assay: Cytotoxicity against human NCI-H23 cells assessed as cell growth at 2.13 uM after 48 hrs by SRB assay; conditions: NCI-H23, 48 h, read-out: Activity
NCI-H460 = assay: Cytotoxicity against human NCI-H460 cells assessed as cell growth at 2.13 uM after 48 hrs by SRB assay; conditions: NCI-H460, 48 h, read-out: Activity
A549 = assay: Cytotoxicity against human A549 cells assessed as cell growth at 2.13 uM after 48 hrs by SRB assay; conditions: A549, 48 h, read-out: Activity
SK-MEL-5 = assay: Cytotoxicity against human SK-MEL-5 cells assessed as cell growth at 2.13 uM after 48 hrs by SRB assay; conditions: SK-MEL-5, 48 h, read-out: Activity
K562 = assay: Cytotoxicity against human K562 cells assessed as cell growth at 2.13 uM after 48 hrs by SRB assay; conditions: K562, 48 h, read-out: Activity
KM12 [23] = assay: Cytotoxicity against human KM12 cells assessed as cell growth at 2.13 uM after 48 hrs by SRB assay; conditions: KM12, 48 h, read-out: Activity
[24] = Cytotoxicity against human UACC62 cells assessed as cell growth at 2.13 uM after 48 hrs by SRB assay; conditions: UACC-62, 48 h, read-out: Activity
[25] = Cytotoxicity against human OVCAR5 cells assessed as cell growth at 2.13 uM after 48 hrs by SRB assay; conditions: OVCAR-5, 48 h, read-out: Activity
[26] = Cytotoxicity against human OVCAR4 cells assessed as cell growth at 2.13 uM after 48 hrs by SRB assay; conditions: OVCAR-4, 48 h, read-out: Activity

SMILES: CC(C)C[C@H](NC(=O)[C@H](CCCCN)NC(=O)[C@H](C)NC(=O)[C@H](CC(C)C)NC(=O)[C@H](CCCCN)NC(=O)[C@H](CCCCN)NC(=O)[C@H](C)NC(=O)[C@H](CC(C)C)NC(=O)[C@H](CCCCN)NC(=O)[C@H](C)NC(=O)[C@H](CC(C)C)NC(=O)[C@H](CCCCN)NC(=O)[C@@H](N)CC(=O)O)C(=O)N[C@@H](C)C(=O)N[C@@H](CCCCN)C(=O)N[C@@H](C)C(=O)N[C@@H](CCCCN)C(N)=O
- growth at 10 µM [1]: 101%
- growth at 10 µM (SK-MEL-28): 104%
- growth at 10 µM [2]: 108%
- growth at 10 µM [3]: 100%
- growth at 10 µM [4]: 105%
- growth at 10 µM [5]: 86.4%
- growth at 10 µM (786-0 [6]): 105%
- growth at 10 µM (M14): 108%

SMILES: CCCCCCCCCCCCCCCC(=O)NCCCC[C@H](NC(=O)[C@H](C)NC(=O)[C@H](CCCCN)NC(=O)[C@H](C)NC(=O)[C@H](CC(C)C)NC(=O)[C@H](CCCCN)NC(=O)[C@H](C)NC(=O)[C@H](CC(C)C)NC(=O)[C@H](CCCCN)NC(=O)[C@H](CCCCN)NC(=O)[C@H](C)NC(=O)[C@H](CC(C)C)NC(=O)[C@H](CCCCN)NC(=O)[C@H](C)NC(=O)[C@H](CC(C)C)NC(=O)[C@H](CCCCN)NC(=O)[C@@H](N)CC(=O)O)C(N)=O
- growth at 7.25 µM [7]: 110%
- mortality at 7.25 µM (NCI-H226 [8]): 0%
- growth at 7.25 µM (NCI-H322M): 108%
- growth at 7.25 µM [9]: 122%
- growth at 7.25 µM [10]: 92.1%
- growth at 7.25 µM [11]: 93.6%
- growth at 7.25 µM [12]: 95.6%
- growth at 7.25 µM (NCI-H226 [13]): 99.5%
- mortality at 7.25 µM (NCI-H522): 16%
- growth at 7.25 µM (SK-MEL-2): 93.1%
- growth at 7.25 µM (786-0 [14]): 107%
- growth at 7.25 µM [15]: 102%
- growth at 7.25 µM [16]: 98.3%
- growth at 7.25 µM [17]: 105%
- growth at 7.25 µM (KM12 [18]): 110%
- growth at 7.25 µM [19]: 102%

SMILES: CCCCCCCCCCCCCCCCNCCO[C@H]1C[C@H](n2cc(C)c(=O)[nH]c2=O)O[C@@H]1C(=O)NCCCC[C@H](NC(=O)[C@H](C)NC(=O)[C@H](CCCCN)NC(=O)[C@H](C)NC(=O)[C@H](CC(C)C)NC(=O)[C@H](CCCCN)NC(=O)[C@H](C)NC(=O)[C@H](CC(C)C)NC(=O)[C@H](CCCCN)NC(=O)[C@H](CCCCN)NC(=O)[C@H](C)NC(=O)[C@H](CC(C)C)NC(=O)[C@H](CCCCN)NC(=O)[C@H](C)NC(=O)[C@H](CC(C)C)NC(=O)[C@H](CCCCN)NC(=O)[C@@H](N)CC(=O)O)C(N)=O
- growth at 2.13 µM [20]: 100%
- growth at 2.13 µM [21]: 96.8%
- growth at 2.13 µM (U-251): 92.7%
- growth at 2.13 µM (CCRF-CEM): 108%
- growth at 2.13 µM (MDA-MB-231): 101%
- growth at 2.13 µM [22]: 109%
- growth at 2.13 µM (NCI-H23): 106%
- growth at 2.13 µM (NCI-H460): 109%
- growth at 2.13 µM (A549): 68.7%
- growth at 2.13 µM (SK-MEL-5): 105%
- growth at 2.13 µM (K562): 106%
- growth at 2.13 µM (KM12 [23]): 103%
- growth at 2.13 µM [24]: 104%
- growth at 2.13 µM [25]: 105%
- growth at 2.13 µM [26]: 112%
